{"source": "paper PMC6934184", "about": "“Selective DNA-PKcs inhibition extends the therapeutic index of localized radiotherapy and chemotherapy” (The Journal of Clinical Investigation, 2019)", "target": "T1, MET D1228H (Homo sapiens, UniProt P08581, D1228H)", "T1 construct": "purchased Thermo Fisher Scientific (Life Technologies) SelectScreen", "T1 sequence (P08581 25-1390 D1228H)": "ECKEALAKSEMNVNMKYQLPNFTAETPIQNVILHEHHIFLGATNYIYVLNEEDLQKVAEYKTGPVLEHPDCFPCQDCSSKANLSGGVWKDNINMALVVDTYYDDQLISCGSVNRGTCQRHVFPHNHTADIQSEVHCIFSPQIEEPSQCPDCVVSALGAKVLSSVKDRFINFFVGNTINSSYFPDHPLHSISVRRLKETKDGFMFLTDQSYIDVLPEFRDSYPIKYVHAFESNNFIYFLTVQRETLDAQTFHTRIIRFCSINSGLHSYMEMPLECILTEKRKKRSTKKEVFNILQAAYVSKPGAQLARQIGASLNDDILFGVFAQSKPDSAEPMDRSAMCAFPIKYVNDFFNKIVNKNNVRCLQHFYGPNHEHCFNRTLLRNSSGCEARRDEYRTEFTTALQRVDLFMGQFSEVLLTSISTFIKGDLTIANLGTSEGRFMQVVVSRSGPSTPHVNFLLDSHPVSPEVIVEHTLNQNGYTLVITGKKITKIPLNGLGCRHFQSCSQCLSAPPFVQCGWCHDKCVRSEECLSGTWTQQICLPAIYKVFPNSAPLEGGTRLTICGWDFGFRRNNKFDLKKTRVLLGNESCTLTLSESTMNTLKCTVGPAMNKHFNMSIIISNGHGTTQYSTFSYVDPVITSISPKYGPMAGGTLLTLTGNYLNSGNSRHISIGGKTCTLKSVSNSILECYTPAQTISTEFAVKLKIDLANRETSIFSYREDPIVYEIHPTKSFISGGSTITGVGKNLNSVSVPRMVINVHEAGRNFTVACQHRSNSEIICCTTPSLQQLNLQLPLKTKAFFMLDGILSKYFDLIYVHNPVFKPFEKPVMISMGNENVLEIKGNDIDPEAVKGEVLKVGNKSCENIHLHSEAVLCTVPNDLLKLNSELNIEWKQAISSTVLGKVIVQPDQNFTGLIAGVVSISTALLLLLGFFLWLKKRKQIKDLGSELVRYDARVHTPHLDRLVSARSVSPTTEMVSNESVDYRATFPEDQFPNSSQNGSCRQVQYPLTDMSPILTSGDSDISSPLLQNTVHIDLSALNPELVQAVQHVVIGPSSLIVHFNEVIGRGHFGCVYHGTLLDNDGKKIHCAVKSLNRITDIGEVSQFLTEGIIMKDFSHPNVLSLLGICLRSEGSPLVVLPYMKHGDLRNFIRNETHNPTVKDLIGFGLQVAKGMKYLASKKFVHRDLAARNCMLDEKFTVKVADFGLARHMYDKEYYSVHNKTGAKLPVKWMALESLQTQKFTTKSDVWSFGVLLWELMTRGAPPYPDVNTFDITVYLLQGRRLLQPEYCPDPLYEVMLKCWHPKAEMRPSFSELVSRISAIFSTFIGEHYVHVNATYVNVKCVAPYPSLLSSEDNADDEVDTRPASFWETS", "test": "SelectScreen LanthaScreen", "format": "binding", "conditions": "1 µM", "how_it_was_run": "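NU5455 was profiled across the SelectScreen Broad panel of kinase activity and binding assays. Z'LYTE reactions such as CSF1R ran at apparent Km ATP, while the Adapta CAMK1 assay used ATP listed as 10. Values are given as percent.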", "data": [{"compound": "CN(C(=O)CN1CCOCC1)c1ccc2sc3c(-c4cccc5c(=O)cc(N6CC7CCC(C6)O7)oc45)cccc3c2c1", "note": "[NU5455]", "values": [{"measurement": "% displacement", "result": -1.5, "unit": "%"}]}]}
